# In PubChem BioAssay (NCI):
#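 These data come from cells grown in 96-well plates and exposed to compound for 48 hours at five concentrations. GI50: concentration for 50% inhibition of growth. TGI: concentration producing complete growth inhibition.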
# Assays:
# Test in all cases: DTP human tumour cell line panel, 48 h
# ACHN renal = tested on: ACHN renal
# OVCAR-3 ovarian = tested on: OVCAR-3 ovarian
# OVCAR-4 ovarian = tested on: OVCAR-4 ovarian
# SK-MEL-5 melanoma = tested on: SK-MEL-5 melanoma
# TK-10 renal = tested on: TK-10 renal
# U251 CNS = tested on: U251 CNS
# UACC-257 melanoma = tested on: UACC-257 melanoma
# HCT-15 colon = tested on: HCT-15 colon
# MDA-MB-231 breast = tested on: MDA-MB-231 breast
# T-47D breast = tested on: T-47D breast
SMILES,TGI (ACHN renal),TGI (OVCAR-3 ovarian),TGI (OVCAR-4 ovarian),TGI (SK-MEL-5 melanoma),TGI (TK-10 renal),TGI (U251 CNS),TGI (UACC-257 melanoma),TGI (HCT-15 colon),TGI (MDA-MB-231 breast),TGI (T-47D breast),GI50 (ACHN renal),GI50 (HCT-15 colon),GI50 (OVCAR-3 ovarian),GI50 (OVCAR-4 ovarian),GI50 (SK-MEL-5 melanoma),GI50 (T-47D breast),GI50 (TK-10 renal),GI50 (U251 CNS),GI50 (UACC-257 melanoma)
O=C(O)c1cc(=O)c2cc(C(=O)c3cccs3)c(Cl)c(Cl)c2o1,> 100 µM,> 100 µM,> 100 µM,> 100 µM,> 100 µM,> 100 µM,> 100 µM,,,,,,,,,,,,
COC1(Cc2ccccc2)C(=O)c2ccccc2N1C(C)=O (stereo not drawn),> 100 µM,> 100 µM,> 100 µM,,,> 100 µM,> 100 µM,> 100 µM,,,,,,,,,,,
Cc1ccc([N+](=O)[O-])c2c(NCCC[N+](C)(C)[O-])ccnc12,> 100 µM,> 100 µM,59.2 µM,24.6 µM,> 100 µM,> 100 µM,69.8 µM,,> 100 µM,> 100 µM,,,,,,,,,
O=C(O)C1CC2CC(=O)C1C2 (stereo not drawn),> 100 µM,> 100 µM,> 100 µM,> 100 µM,> 100 µM,> 100 µM,> 100 µM,,,,,,,,,,,,
O=C(NC1C=Nc2ccccc2NC1=O)c1ccccc1Cl (stereo not drawn),> 100 µM,> 100 µM,> 100 µM,> 100 µM,> 100 µM,> 100 µM,> 100 µM,> 100 µM,,,,,,,,,,,
OC1c2ccccc2C2C(O)c3ccccc3C12 (stereo not drawn),> 100 µM,> 100 µM,> 100 µM,> 100 µM,> 100 µM,> 100 µM,> 100 µM,> 100 µM,,,,,,,,,,,
CCOC(=O)c1cn(CC)c2cc3c(cc2c1=O)SCS3,> 100 µM,> 100 µM,> 100 µM,> 100 µM,> 100 µM,> 100 µM,> 100 µM,> 100 µM,,,,,,,,,,,
COc1ccc2c(c1OC)C(=O)O[C@@H]2[C@H]1c2c(c(Br)c3c(c2OC)OCO3)CCN1C,> 100 µM,40.8 µM,> 100 µM,> 100 µM,94.5 µM,> 100 µM,> 100 µM,> 100 µM,,> 100 µM,> 100 µM,4.67 µM,10.6 µM,> 100 µM,4.12 µM,80.5 µM,14.4 µM,8.8 µM,7.76 µM
O=C1NN=C(c2ccc([N+](=O)[O-])cc2)C1n1nc(-c2ccccc2)c2ccccc2c1=O (stereo not drawn),> 100 µM,> 100 µM,> 100 µM,> 100 µM,> 100 µM,> 100 µM,> 100 µM,> 68.5 µM,,,,,,,,,,,
COc1cc(/C=C\c2ccc(Cl)cc2)cc(OC)c1OC,> 100 µM,0.437 µM,> 100 µM,12.8 µM,> 100 µM,> 100 µM,39.2 µM,14.4 µM,,,,,,,,,,,
COc1ccc(/C=N\O[Si](C)(C)C(C)(C)C)cc1O[Si](C)(C)C(C)(C)C,33.3 µM,31 µM,46.3 µM,33.9 µM,36.3 µM,36 µM,43.3 µM,34 µM,,,,,,,,,,,
COC(=O)C1=C(c2ccc(Cl)cc2)C(O)N=C(NN)N1 (stereo not drawn),> 100 µM,> 100 µM,> 100 µM,> 100 µM,> 100 µM,> 100 µM,> 100 µM,> 100 µM,,,,,,,,,,,
